For one test, the system named is glandular kallikrein. Kind of test: Inhibition of glandular kallikrein by the method of Example 23. Type of test: biochemical. The settings on record: protease about 10 μM, ketone inhibitor about 0.1 mM. On the procedure:
(§1) An aqueous solution of elastase (0.3 μM) in 0.1M TES pH 8.2 containing CaCl2 (10 mM) was assayed against the synthetic substrate MeOSuc-Ala-Ala-Pro-Val-MNA. The liberated detecting group (MNA) was quantitated by fluorescence. A standard number of enzyme units were preincubated with each inhibitor at several concentrations for set time periods of 5, 15, 30, and 60 minutes at 37°; then all test samples were individually assayed for activity using the same synthetic substrate and conditions as per control with inhibitors absent. The amount of enzyme activity inhibited by each inhibitor was determined by subtracting the residual activity for each inhibitor against the control activity.
Following the method of Example 23 above, the serine protease glandular kallikrein is inhibited by the ketone inhibitor D-Val-Leu-ArgCH2 F with a protease concentration of about 10 μM and a ketone inhibitor concentration of about 0.1 mM.

A further test relates to plasma kallikrein. Kind of test: Inhibition of plasma kallikrein by the method of Example 23. Type of test: biochemical. As to conditions: protease about 10 μM, ketone inhibitor about 0.1 mM. On the procedure:
as §1
Following the method of Example 23, above, the serine protease plasma kallikrein is inhibited by the ketone inhibitor D-Pro-Phe-ArgCH2 F under the same conditions with a protease concentration of about 10 μM and ketone inhibitor concentration of about 0.1 mM.

The subject of another test is cathepsin L. Kind of test: Inhibition of cathepsin L by the method of Example 22. The settings on record: same conditions and concentrations of protease to ketone inhibitor as Example 22. The test is classed as biochemical. On the procedure:
(§2) Enzyme activity was assayed using the synthetic oligopeptide substrate Bz-Val-Lys-Arg-AFC with 10 mM DTT and 1 mM of the activator salt EDTA at pH 6.5 by fluorescence detection of the liberated AFC. Units of enzyme activity were standardized per 100 ml of a 50 percent of glycerol-phosphate buffer solution. A standard concentration of enzyme (10 nM) was preincubated with each inhibitor (50 nM) over set time periods of 3, 5, 10, 15, 20 and 30 minutes, 25°; then all test samples were individually assayed for activity using the same synthetic substrate and condition to determine the remaining units of activity of the purified enzyme. The amount of enzyme activity inhibited by each inhibitor was determined by subtracting the residual activity for each inhibitor against the control activity.

The next test relates to plasminogen activator. Kind of test: Inhibition of plasminogen activator by the method of Example 23. Type of test: biochemical. The settings on record: protease about 50 μM, ketone inhibitor about 0.1 mM. The method, then:
as §1
Following the method of Example 23, above, the serine protease plasminogen activator is inhibited by MeOSuc-Gly-Gly-ArgCH2 F under the same conditions with a protease concentration of about 50 μM and a ketone inhibitor concentration of about 0.1 mM.

The target in test [1] is T1, cathepsin B (Rattus norvegicus, UniProt P00787).
T1 construct: cathepsin B in rat spleen, pancreas, liver and kidney tissue homogenates; from tissue; host or cells: rat spleen, pancreas, liver and kidney (supernatant of homogenates)
Kind of test: Rate of inhibition of cathepsin B in rat tissue homogenates. As to conditions: inhibitor 0.10 μM, 25°. Type of test: biochemical. The method, then:
as §2, with “activity. […] The inhibitor specificity constant (k3 /KI) for Z-Phe-AlaCH2 F is 30 fold higher than for Z-Phe-AlaCHN2.” for “activity.”
The rate of inhibition of cathepsin B in rat spleen, pancreas, liver and kidney tissue homogenates was assayed using the inhibitors: Z-Phe-AlaCHN2; Z-Phe-AlaCH2 Cl; and Z-Phe-AlaCH2 F.
The proceding tissues were homogenized, centrifuged at 13,000 rpm for 25 minutes and the supernatant removed. Aliquots of the supernatant were diluted with water to yield a concentration of 0.01 μM. The method of Example 9 was followed. As soon in Table III, the inhibition by the three inhibitors relevant to Cathepsin B were compared for each of the tissue samples. Results are expressed as .tau. (the half-time of inactivation, inhibition). […] The concentration for the inhibitors was 0.10 μM and the incubation temperature was 25°.

Test [2] has as its system cathepsin B. Kind of test: Irreversible inhibition of purified cathepsin B, fluorescence assay with Bz-Val-Lys-Arg-AFC. Type of test: biochemical, human and rat. As to conditions: for k3 (rate constant of inactivation) / Ki: pH 6.5, 10 mM DTT, 1 mM EDTA, 25°; for Ki: read-out: KI (inhibitor dissociation constant); for k3 /KI (inhibitor specificity constant): pH 6.5, 25°. The method, then: as §2, with “([…])” for “(10 nM) was preincubated with each inhibitor (50 nM)”, “activity. […] The inhibitor specificity constant (k3 /KI) for Z-Phe-AlaCH2 F is 30 fold higher than for Z-Phe-AlaCHN2.” for “activity.”

Test [3] deals with porcine pancreatic elastase. Kind of test: Irreversible inhibition of elastase, fluorescence assay with MeOSuc-Ala-Ala-Pro-Val-MNA. The test is classed as biochemical. The settings on record: alkaline conditions (0.1M TES pH 8.2, 10 mM CaCl2), 37°. On the procedure: as §1
A further test has as its system trypsin. Kind of test: Inhibition of trypsin by the method of Example 23. Type of test: biochemical. As to conditions: protease about 10 μM, ketone inhibitor about 0.1 mM. On the procedure: as §1
Following the method of Example 23 above, the serine protease trypsin is inhibited by the ketone inhibitor Z-LysCH2 F with a protease concentration of about 10 μM and a ketone inhibitor concentration of about 0.1 mM.

Where a SMILES comes first, the peptide text is derived from it. [ ]: non-standard residue; d: D form. The star is where a group is joined. ξ: configuration not given here. ξF = NC(Cc1ccccc1)C(=O)O; Cbz = O=C(OCc1ccccc1)*; CH2F = FC*

T1 sequence (P00787 80-339): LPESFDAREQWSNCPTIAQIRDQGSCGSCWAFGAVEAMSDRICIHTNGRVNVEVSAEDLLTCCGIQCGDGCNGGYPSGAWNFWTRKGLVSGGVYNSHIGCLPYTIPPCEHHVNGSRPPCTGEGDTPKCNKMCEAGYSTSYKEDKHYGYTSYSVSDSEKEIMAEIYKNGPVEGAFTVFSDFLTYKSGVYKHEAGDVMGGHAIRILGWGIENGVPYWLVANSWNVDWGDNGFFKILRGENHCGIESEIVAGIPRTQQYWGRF

In the case of `CC(C)C[C@H](NC(=O)[C@H](N)C(C)C)C(=O)N[C@@H](CCCNC(=N)N)C(=O)CF` [D-Val-Leu-ArgCH2 F] (HELM PEPTIDE1{[dV].L.R.[FC[*:1]]}$$$$V2.0), the “inhibition of glandular kallikrein (in words)” value in the test with glandular kallikrein is given as “inhibited”.

For `N=C(N)NCCC[C@H](NC(=O)[C@H](Cc1ccccc1)NC(=O)[C@H]1CCCN1)C(=O)CF` [D-Pro-Phe-ArgCH2 F] (HELM PEPTIDE1{[dP].F.R.[FC[*:1]]}$$$$V2.0), the “inhibition of plasma kallikrein (in words)” value with plasma kallikrein was “inhibited”.

As to `O=C(N[C@@H](Cc1ccccc1)C(=O)NC(Cc1ccccc1)C(=O)CF)OCc1ccccc1` (stereo partly drawn) [Z-Phe-PheCH2 F] (Cbz-Phe-[ξF]-CH2F), in the test with cathepsin L, the “inhibition of cathepsin L (in words)” value was “inhibited”.

On to `COC(=O)CCC(=O)NCC(=O)NCC(=O)NC(CCCNC(=N)N)C(=O)CF` (stereo not drawn) [MeOSuc-Gly-Gly-ArgCH2 F], for which, in the test with plasminogen activator, the “inhibition of plasminogen activator (in words)” value was “inhibited”.

In the case of `CC(NC(=O)[C@H](Cc1ccccc1)NC(=O)OCc1ccccc1)C(=O)CF` (stereo partly drawn) [Z-Phe-AlaCH2 F, 3-(N-Benzyloxycarbonylphenylalanylamido)-1-fluoro-2-butanone], in the test with cathepsin L, the “inhibition of cathepsin L (in words)” value is listed as “inhibited”. Besides, the “.tau. Half-Time (half-time of inactivation)” value (shortened to “.tau. Half-Time”) at cathepsin B [1] (rat KIDNEY homogenate) stood at 7.9 min; at cathepsin B [1] (rat LIVER homogenate) it was 8.5 min; on cathepsin B [1] (rat PANCREAS homogenate), 12.4 min; on cathepsin B [1] (rat SPLEEN homogenate) it was 14.2 min. Moreover, the “inhibition of purified cathepsin B (in words)” value with cathepsin B [2] (0.1 μM inhibitor) is recorded as “effective inhibitor”. Besides, the “k3 /KI fold higher than for Z-Phe-AlaCHN2” value in the test on cathepsin B [2] (purified cathepsin B) came out at 30 fold. Also, the “k3 (rate constant of inactivation)” value with cathepsin B [2] (purified cathepsin B) is reported as 9.2±1.3×10^-3 s^-1. The Ki on cathepsin B [2] (purified cathepsin B) was 0.57 ± 0.09 µM. At cathepsin B [2] (purified cathepsin B), the “k3 /KI (inhibitor specificity constant)” value was 16,200 M^-1 s^-1. Besides, the “inhibition of porcine pancreatic elastase (in words)” value in test [3] was “inhibits”.

In the case of `C[C@H](NC(=O)[C@H](Cc1ccccc1)NC(=O)OCc1ccccc1)C(=O)CCl` [Z-Phe-AlaCH2 Cl], the “.tau. Half-Time” value on cathepsin B [1] (rat KIDNEY homogenate) is 76.6 min; on cathepsin B [1] (rat LIVER homogenate), 66.5 min; on cathepsin B [1] (rat PANCREAS homogenate), 21.4 min; on cathepsin B [1] (rat SPLEEN homogenate) it was 74.2 min.

Turning to `C[C@H](NC(=O)[C@H](Cc1ccccc1)NC(=O)OCc1ccccc1)C(=O)C=[N+]=[N-]` [Z-Phe-AlaCHN2], the “.tau. Half-Time” value on cathepsin B [1] (rat KIDNEY homogenate) was 20.1 min; on cathepsin B [1] (rat LIVER homogenate), 22.4 min; at cathepsin B [1] (rat PANCREAS homogenate), 15.8 min; on cathepsin B [1] (rat SPLEEN homogenate) it was 26.4 min. Moreover, in the test with cathepsin B [2] (purified cathepsin B), the “k3 (rate constant of inactivation)” value is 4.1±1.7×10^-3 s^-1. The Ki on cathepsin B [2] (purified cathepsin B) is 7.4 ± 3 µM. Further, the “k3 /KI (inhibitor specificity constant)” value on cathepsin B [2] (purified cathepsin B) stood at 546 M⁻¹ s⁻¹.

With `NCCCCC(NC(=O)OCc1ccccc1)C(=O)CF` (stereo not drawn) [Z-LysCH2 F], the “inhibition of trypsin (in words)” value in the test with trypsin was “inhibited”.

(Values after patent US4518528A, “α Amino fluoro ketones” (priority 1984, dated 1985).)
